This is an account of results in US12649750B2, “Macrocyclic compounds, compositions, and methods of using thereof” (Sionna Therapeutics Inc., priority 2022, dated 2026).

T1 sequence (P13569 423-646 limits assumed): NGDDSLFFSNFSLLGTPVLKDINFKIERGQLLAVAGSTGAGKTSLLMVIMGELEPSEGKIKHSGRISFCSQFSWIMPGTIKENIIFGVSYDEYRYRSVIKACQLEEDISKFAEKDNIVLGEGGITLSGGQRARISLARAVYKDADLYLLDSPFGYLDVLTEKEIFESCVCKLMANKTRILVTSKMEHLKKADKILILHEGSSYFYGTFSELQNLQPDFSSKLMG

The experiment has as its target T1, NBD1 (Homo sapiens, UniProt P13569).
T1 construct: Purified recombinant NBD1 was produced using previously described methods; made in house
Put plainly: Aggregation analysis using differential static light scattering (DSLS), thermal stability of NBD1 (ΔTagg). Type of experiment: binding. Particulars: ΔTagg versus DMSO control, NBD1 0.2 mg/ml. Put shortly: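 Purified recombinant NBD1 at 0.2 mg/ml in Tris buffer pH7.6 with 2 mM ATP, 5 mM MgCl2, 2 mM DTT and 1% glycerol was mixed with DMSO-dissolved compounds under mineral oil. Plates were heated at 1° C. per minute to 70° C., light scattering imaged every 0.5° C.; Tagg from curve inflection, minus DMSO-control mean.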
On to `Cn1nc2nc1-c1cc(ccc1F)Sc1c(F)c(F)c3[nH]ccc3c1CCS(=O)(=O)CC(C)(C)CCC[C@]2(C)c1cccc(CC2(C(=O)O)CC2)c1` [Compound 303A, 1-[[3-[(6R)-21,22,28-Trifluoro-3,6,10,10-tetramethyl-12,12-dioxo-12λ6,24-dithia-3,4,19,30-tetrazapentacyclo[23.3.1.12,5.015,23.016,20]triaconta-1(29),2(30),4,15,17,20,22,25,27-nonaen-6-yl]phenyl]methyl]cyclopropanecarboxylic acid], for which the “DSLS 3D (100 μM ΔT)” value is “B (a value above 5 °C and less than or equal to 10 °C is marked “B”)”.

Regarding `C[C@@H](Cc1cccc([C@@]2(C)CCCC(C)(C)CS(=O)(=O)CCc3c(c(F)c(F)c4[nH]ccc34)Cc3ccnc(c3)-c3nc2nn3C)c1)C(=O)O` [Compound 304, (2S)-3-[3-[(6R)-21,22-Difluoro-3,6,10,10-tetramethyl-12,12-dioxo-12λ6-thia-3,4,19,28,30-pentazapentacyclo[23.3.1.12,5.015,23.016,20]triaconta-1(29),2(30),4,15,17,20,22,25,27-nonaen-6-yl]phenyl]-2-methyl-propanoic Acid], the “DSLS 3D (100 μM ΔT)” value is “B (a value above 5 °C and less than or equal to 10 °C is marked “B”)”.

Turning to `C[C@H](Cc1cccc([C@@]2(C)CCCC(C)(C)CS(=O)(=O)CCc3c(c(F)c(F)c4[nH]ccc34)Cc3ccnc(c3)-c3nc2nn3C)c1)C(=O)O` [Compound 305, (2R)-3-[3-[(6R)-21,22-Difluoro-3,6,10,10-tetramethyl-12,12-dioxo-12λ6-thia-3,4,19,28,30-pentazapentacyclo[23.3.1.12,5.015,23.016,20]triaconta-1(29),2(30),4,15,17,20,22,25,27-nonaen-6-yl]phenyl]-2-methyl-propanoic acid], the “DSLS 3D (100 μM ΔT)” value was “B (a value above 5 °C and less than or equal to 10 °C is marked “B”)”.

In the case of `Cn1nc2nc1-c1cc(ccn1)Cc1c(F)c(F)c3[nH]ccc3c1CCS(=O)(=O)CC(C)(C)CCC[C@]2(C)c1cccc(CC2(C(=O)O)CC2)c1` [Compound 306, 1-[[3-[(6R)-21,22-Difluoro-3,6,10,10-tetramethyl-12,12-dioxo-12λ6-thia-3,4,19,28,30-pentazapentacyclo[23.3.1.12,5.015,23.016,20]triaconta-1(29),2(30),4,15,17,20,22,25,27-nonaen-6-yl]phenyl]methyl]cyclopropanecarboxylic Acid], the “DSLS 3D (100 μM ΔT)” value was “A (an ΔTagg value less than or equal to 5 °C is marked “A”)”.

Turning to `Cn1nc2nc1-c1cc(ccn1)Cc1c(F)c(F)c3[nH]ccc3c1CCS(=O)(=O)CC(C)(C)CCC[C@]2(C)c1cccc(CC(C)(C)C(=O)O)c1` [Compound 307, 3-[3-[(6R)-21,22-Difluoro-3,6,10,10-tetramethyl-12,12-dioxo-12λ6-thia-3,4,19,28,30-pentazapentacyclo[23.3.1.12,5.015,23.016,20]triaconta-1(29),2(30),4,15,17,20,22,25,27-nonaen-6-yl]phenyl]-2,2-dimethyl-propanoic Acid], the “DSLS 3D (100 μM ΔT)” value was “A (an ΔTagg value less than or equal to 5 °C is marked “A”)”.

Take `Cn1nc2nc1-c1cc(ccn1)Sc1c(F)c(F)c3[nH]ccc3c1CCS(=O)(=O)CC(C)(C)CCC[C@]2(C)c1cccc(CC2(C(=O)O)CC2)c1` [Compound 308, 1-[[3-[(6R)-21,22-difluoro-3,6,10,10-tetramethyl-12,12-dioxo-12λ6,24-dithia-3,4,19,28,30-pentazapentacyclo[23.3.1.12,5.015,23.016,20]triaconta-1(29),2(30),4,15,17,20,22,25,27-nonaen-6-yl]phenyl]methyl]cyclopropanecarboxylic acid]: the “DSLS 3D (100 μM ΔT)” value is “B (a value above 5 °C and less than or equal to 10 °C is marked “B”)”.
